Measurements reported in patent US6800590B2, “2-Pyrimidinyloxy-n-aryl-benzylamine derivatives,their processes and uses” (Shanghai Institute of Organic Chemistry, priority 2003, dated 2004).

How the values were obtained:
[1] = test system: transplanted paddy seedlings; test: Paddy safety, treatment on stem and leaves of transplanted paddy seedlings; format: in vivo; conditions: 150 g ai/ha, spray on stem and leaves of transplanted paddy seedlings at 4-5-leaves stage
Description: The 5-grade evaluation criteria by visual examination for weeding activity and crop safety (i.e. phytotoxicity) are listed in Table 2.
In pots (diameter of 12 cm) containing test soil, paddy seedlings of the given stage are transplanted and grown in the greenhouse at 20-30° C. After growing to 4-5-leaves stage, the spraying treatment on the stem and leaves of paddy seedlings is conducted in a dosage of 150 g ai/ha after diluting the formulation obtained according to Formulating Example 5 into a given concentration. The visual injury and growth state of the individual plants are observed in regular intervals. The evaluation for the crop safety of the compounds is conducted by 5-grade visual observation.

melting point | Structure (SMILES) | Effect on tillering [1] | Stunting [1]
– | COc1cc(OC)nc(Oc2ccccc2CNc2ccc(NC(=O)c3ccccc3)cc2)n1 [Compound I-102] | None | 10-15%
96 to 97 °C | CCCNC(=O)c1ccc(NCc2ccccc2Oc2nc(OC)cc(OC)n2)cc1 [Compound I-78, n-propyl 4-[2-(4,6-dimethoxy-2-pyrimidinyloxy)-benzylamino]-benzamide] | – | –
83 to 84 °C | COc1cc(OC)nc(Oc2ccccc2CNc2ccc(C(=O)NC(C)C)cc2)n1 [Compound I-79, i-propyl 4-[2-(4,6-dimethoxy-2-pyrimidinyloxy)-benzylamino]benzamide] | – | –
– | COc1cc(OC)nc(Oc2ccccc2CNc2ccc(NC(=O)C(C)C)cc2)n1 [Compound I-101] | None | <10%
– | COc1cc(OC)nc(Oc2ccccc2CNc2ccc(NC(=O)C(F)(F)F)cc2)n1 [Compound I-103] | None | 20-25%
